Columns and labels:
Interstitial collagenase [1] = biological target: T1, Interstitial collagenase (Homo sapiens, UniProt P03956); assay: Inhibition of MMP-1 (unknown origin)
T1 sequence (P03956 whole entry): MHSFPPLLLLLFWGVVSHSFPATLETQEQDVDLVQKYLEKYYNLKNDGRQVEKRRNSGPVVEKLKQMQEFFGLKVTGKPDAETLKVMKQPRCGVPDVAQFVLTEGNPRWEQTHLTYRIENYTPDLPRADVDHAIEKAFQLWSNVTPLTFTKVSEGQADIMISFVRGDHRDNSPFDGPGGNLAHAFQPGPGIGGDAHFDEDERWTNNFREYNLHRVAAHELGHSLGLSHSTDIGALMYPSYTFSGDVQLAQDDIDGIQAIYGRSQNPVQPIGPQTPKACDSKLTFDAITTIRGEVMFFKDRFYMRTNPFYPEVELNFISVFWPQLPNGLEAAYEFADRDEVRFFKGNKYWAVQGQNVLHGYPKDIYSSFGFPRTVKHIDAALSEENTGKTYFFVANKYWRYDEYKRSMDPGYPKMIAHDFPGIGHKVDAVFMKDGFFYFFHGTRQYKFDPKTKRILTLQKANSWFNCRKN

[2] = biological target: T2, 72 kDa type IV collagenase (Homo sapiens, UniProt P08253)
T2 sequence (P08253 whole entry): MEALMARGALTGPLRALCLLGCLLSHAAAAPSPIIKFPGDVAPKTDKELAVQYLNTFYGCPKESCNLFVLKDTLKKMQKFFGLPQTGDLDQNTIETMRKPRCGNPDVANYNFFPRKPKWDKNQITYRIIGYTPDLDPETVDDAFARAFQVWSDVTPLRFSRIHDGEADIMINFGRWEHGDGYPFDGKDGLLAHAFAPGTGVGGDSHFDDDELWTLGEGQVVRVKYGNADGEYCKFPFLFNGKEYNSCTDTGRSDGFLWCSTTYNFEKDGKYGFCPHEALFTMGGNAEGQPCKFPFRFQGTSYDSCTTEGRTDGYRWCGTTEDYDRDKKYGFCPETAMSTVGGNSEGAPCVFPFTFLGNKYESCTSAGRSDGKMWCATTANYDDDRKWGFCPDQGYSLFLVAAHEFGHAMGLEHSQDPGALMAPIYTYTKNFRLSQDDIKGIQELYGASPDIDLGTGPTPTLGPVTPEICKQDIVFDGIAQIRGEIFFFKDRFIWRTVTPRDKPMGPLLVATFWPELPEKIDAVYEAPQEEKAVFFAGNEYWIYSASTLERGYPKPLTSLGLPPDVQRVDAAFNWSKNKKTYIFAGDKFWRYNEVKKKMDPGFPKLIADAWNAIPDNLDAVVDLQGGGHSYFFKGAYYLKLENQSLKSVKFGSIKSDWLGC

[3] = biological target: T3, Matrix metalloproteinase-9 (Homo sapiens, UniProt P14780); assay: Inhibition of MMP-9 (unknown origin)
T3 sequence (P14780 whole entry): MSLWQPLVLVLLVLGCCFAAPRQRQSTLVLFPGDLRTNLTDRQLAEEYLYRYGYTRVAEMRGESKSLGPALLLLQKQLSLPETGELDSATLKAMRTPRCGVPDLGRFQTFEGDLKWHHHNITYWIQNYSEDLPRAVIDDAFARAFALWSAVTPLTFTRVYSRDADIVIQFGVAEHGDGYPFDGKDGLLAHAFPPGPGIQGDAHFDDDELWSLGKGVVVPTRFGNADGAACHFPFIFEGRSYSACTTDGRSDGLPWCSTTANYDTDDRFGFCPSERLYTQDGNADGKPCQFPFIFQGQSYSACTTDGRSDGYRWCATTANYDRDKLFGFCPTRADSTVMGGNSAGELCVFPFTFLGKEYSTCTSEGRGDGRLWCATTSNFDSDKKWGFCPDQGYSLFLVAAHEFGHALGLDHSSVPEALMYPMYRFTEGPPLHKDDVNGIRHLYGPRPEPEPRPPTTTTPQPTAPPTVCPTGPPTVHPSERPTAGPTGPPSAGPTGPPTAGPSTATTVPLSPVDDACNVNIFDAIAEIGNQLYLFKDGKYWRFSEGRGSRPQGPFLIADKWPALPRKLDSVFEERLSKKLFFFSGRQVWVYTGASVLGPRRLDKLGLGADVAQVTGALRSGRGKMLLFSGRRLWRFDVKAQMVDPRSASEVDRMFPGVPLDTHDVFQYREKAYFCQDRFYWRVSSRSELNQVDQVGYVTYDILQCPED

Collagenase 3 [4] = biological target: T4, Collagenase 3 (Homo sapiens, UniProt P45452)
Description: Inhibition of MMP-13 (unknown origin)

Interstitial collagenase [5] = biological target: T1, Interstitial collagenase; assay: Inhibition of human MMP-1 expressed in Escherichia coli BL21(DE3) using Mca-Pro-Leu-Gly-Leu-Dpa-Ala-Arg-NH2 as substrate preincubated for 30 mins followed by susbstrate addition by photon-counter spectrophotometer analysis
[6] = biological target: T2, 72 kDa type IV collagenase; assay: Inhibition of human MMP-2 expressed in Escherichia coli BL21(DE3) using Mca-Pro-Leu-Gly-Leu-Dpa-Ala-Arg-NH2 as substrate preincubated for 30 mins followed by susbstrate addition by photon-counter spectrophotometer analysis
Stromelysin-1 [7] = biological target: T5, Stromelysin-1 (Homo sapiens, UniProt P08254); assay: Inhibition of human MMP-3 expressed in Escherichia coli BL21(DE3) using Mca-Pro-Leu-Gly-Leu-Dpa-Ala-Arg-NH2 as substrate preincubated for 30 mins followed by susbstrate addition by photon-counter spectrophotometer analysis
T5 sequence (P08254 whole entry): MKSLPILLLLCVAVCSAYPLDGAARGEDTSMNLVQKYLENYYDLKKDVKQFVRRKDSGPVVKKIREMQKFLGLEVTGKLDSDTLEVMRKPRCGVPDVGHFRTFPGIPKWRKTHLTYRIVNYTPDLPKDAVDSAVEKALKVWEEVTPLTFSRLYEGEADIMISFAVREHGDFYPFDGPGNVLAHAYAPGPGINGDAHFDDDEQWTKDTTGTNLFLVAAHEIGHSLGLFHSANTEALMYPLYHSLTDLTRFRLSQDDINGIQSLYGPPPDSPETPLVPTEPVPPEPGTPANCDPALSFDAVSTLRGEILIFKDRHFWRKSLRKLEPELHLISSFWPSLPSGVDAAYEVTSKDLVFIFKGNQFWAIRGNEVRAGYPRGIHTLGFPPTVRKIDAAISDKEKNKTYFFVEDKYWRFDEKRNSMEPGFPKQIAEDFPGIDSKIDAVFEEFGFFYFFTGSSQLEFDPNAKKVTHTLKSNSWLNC

Matrilysin [8] = biological target: T6, Matrilysin (Homo sapiens, UniProt P09237); assay: Inhibition of human MMP-7 expressed in Escherichia coli BL21(DE3) using Mca-Pro-Leu-Gly-Leu-Dpa-Ala-Arg-NH2 as substrate preincubated for 30 mins followed by susbstrate addition by photon-counter spectrophotometer analysis
T6 sequence (P09237 whole entry): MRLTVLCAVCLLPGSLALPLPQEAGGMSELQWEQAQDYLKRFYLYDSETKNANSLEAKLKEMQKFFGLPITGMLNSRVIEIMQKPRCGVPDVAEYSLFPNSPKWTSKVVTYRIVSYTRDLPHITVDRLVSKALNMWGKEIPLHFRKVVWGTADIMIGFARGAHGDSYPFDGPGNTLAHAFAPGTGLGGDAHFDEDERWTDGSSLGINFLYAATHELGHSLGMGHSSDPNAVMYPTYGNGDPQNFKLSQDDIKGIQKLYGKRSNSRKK

Neutrophil collagenase [9] = biological target: T7, Neutrophil collagenase (Homo sapiens, UniProt P22894); assay: Inhibition of human MMP-8 expressed in Escherichia coli BL21(DE3) using Mca-Pro-Leu-Gly-Leu-Dpa-Ala-Arg-NH2 as substrate preincubated for 30 mins followed by susbstrate addition by photon-counter spectrophotometer analysis
T7 sequence (P22894 whole entry): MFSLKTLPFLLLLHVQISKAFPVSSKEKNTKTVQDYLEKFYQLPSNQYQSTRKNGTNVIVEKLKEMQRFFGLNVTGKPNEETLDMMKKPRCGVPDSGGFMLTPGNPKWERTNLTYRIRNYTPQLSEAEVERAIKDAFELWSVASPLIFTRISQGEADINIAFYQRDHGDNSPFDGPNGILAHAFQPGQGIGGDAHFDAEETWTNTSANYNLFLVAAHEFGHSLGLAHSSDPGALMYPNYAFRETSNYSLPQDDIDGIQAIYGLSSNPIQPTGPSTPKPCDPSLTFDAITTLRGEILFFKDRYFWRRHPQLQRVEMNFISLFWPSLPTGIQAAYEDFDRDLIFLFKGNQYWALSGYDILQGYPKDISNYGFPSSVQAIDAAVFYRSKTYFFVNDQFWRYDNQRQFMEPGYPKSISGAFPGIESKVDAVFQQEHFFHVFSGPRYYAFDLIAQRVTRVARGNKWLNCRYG

[10] = biological target: T3, Matrix metalloproteinase-9; assay: Inhibition of human MMP-9 expressed in Escherichia coli BL21(DE3) using Mca-Pro-Leu-Gly-Leu-Dpa-Ala-Arg-NH2 as substrate preincubated for 30 mins followed by susbstrate addition by photon-counter spectrophotometer analysis
Stromelysin-2 [11] = biological target: T8, Stromelysin-2 (Homo sapiens, UniProt P09238); assay: Inhibition of human MMP-10 expressed in Escherichia coli BL21(DE3) using Mca-Pro-Leu-Gly-Leu-Dpa-Ala-Arg-NH2 as substrate preincubated for 30 mins followed by susbstrate addition by photon-counter spectrophotometer analysis
T8 sequence (P09238 whole entry): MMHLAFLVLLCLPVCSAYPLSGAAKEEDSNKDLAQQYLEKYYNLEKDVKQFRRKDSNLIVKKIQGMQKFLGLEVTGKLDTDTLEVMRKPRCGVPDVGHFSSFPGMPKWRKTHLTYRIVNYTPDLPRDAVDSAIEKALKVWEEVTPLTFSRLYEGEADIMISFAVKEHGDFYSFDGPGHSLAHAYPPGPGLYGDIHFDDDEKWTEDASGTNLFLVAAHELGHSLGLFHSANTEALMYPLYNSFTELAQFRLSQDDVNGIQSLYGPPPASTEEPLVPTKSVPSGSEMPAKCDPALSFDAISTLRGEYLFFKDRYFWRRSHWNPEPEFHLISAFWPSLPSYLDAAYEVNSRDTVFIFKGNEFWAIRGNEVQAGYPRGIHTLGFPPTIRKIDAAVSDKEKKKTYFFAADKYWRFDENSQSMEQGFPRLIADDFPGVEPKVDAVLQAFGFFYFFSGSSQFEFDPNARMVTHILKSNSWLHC

Collagenase 3 [12] = biological target: T4, Collagenase 3; assay: Inhibition of human MMP-13 expressed in Escherichia coli BL21(DE3) using Mca-Pro-Leu-Gly-Leu-Dpa-Ala-Arg-NH2 as substrate preincubated for 30 mins followed by susbstrate addition by photon-counter spectrophotometer analysis
[13] = biological target: T9, Matrix metalloproteinase-14 (Homo sapiens, UniProt P50281); assay: Inhibition of human MMP-14 expressed in Escherichia coli BL21(DE3) using Mca-Pro-Leu-Gly-Leu-Dpa-Ala-Arg-NH2 as substrate preincubated for 30 mins followed by susbstrate addition by photon-counter spectrophotometer analysis
Stromelysin-1 [14] = biological target: T5, Stromelysin-1; assay: Inhibition of MMP-3 (unknown origin)
Matrilysin [15] = biological target: T6, Matrilysin; assay: Inhibition of MMP-7 (unknown origin)
Neutrophil collagenase [16] = biological target: T7, Neutrophil collagenase; assay: Inhibition of MMP-8 (unknown origin)
[17] = biological target: Macrophage metalloelastase (Homo sapiens, UniProt P39900); assay: Inhibition of MMP-12 (unknown origin)
Macrophage metalloelastase, sequence (P39900 whole entry): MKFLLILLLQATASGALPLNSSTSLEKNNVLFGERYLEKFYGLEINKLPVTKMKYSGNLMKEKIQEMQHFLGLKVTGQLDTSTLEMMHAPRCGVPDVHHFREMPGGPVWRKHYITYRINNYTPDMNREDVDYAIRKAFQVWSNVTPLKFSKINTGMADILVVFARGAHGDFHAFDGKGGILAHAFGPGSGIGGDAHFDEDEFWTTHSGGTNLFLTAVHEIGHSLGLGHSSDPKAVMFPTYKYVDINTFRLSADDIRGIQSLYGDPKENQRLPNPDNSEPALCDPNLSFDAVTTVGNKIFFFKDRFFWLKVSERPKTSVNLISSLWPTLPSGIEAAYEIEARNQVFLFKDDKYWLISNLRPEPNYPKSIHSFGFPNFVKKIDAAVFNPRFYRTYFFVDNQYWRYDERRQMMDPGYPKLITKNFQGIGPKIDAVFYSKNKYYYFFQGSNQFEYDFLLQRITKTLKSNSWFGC

[18] = biological target: T9, Matrix metalloproteinase-14; assay: Inhibition of MMP-14 (unknown origin)
[19] = biological target: T2, 72 kDa type IV collagenase; assay: Inhibition of MMP-2 (unknown origin) catalytic activity using Ac-PLG-[2-mercapto-4-methylpentanoyl]-LG-OC2H5 as substrate and measured upto 30 mins by microplate reader analysis
[20] = biological target: T3, Matrix metalloproteinase-9; assay: Inhibition of MMP-9 (unknown origin) catalytic activity using Ac-PLG-[2-mercapto-4-methylpentanoyl]-LG-OC2H5 as substrate and measured upto 30 mins by microplate reader analysis
Stromelysin-2 [21] = biological target: T8, Stromelysin-2; assay: Inhibition of MMP-10 (unknown origin)
[22] = biological target: T2, 72 kDa type IV collagenase; assay: Inhibition of MMP-2 (unknown origin) using Mca-Pro-Leu-Gly-Leu-Dpa-Ala-Arg-NH2 as substrate by fluorimetric assay
[23] = biological target: T3, Matrix metalloproteinase-9; assay: Inhibition of MMP-9 (unknown origin) using Mca-Pro-Leu-Gly-Leu-Dpa-Ala-Arg-NH2 as substrate by fluorimetric assay
Neutrophil collagenase [24] = biological target: T7, Neutrophil collagenase; assay: Inhibition of recombinant human MMP-8 for 3 hrs using colorimetric substrate by ELISA

## O=C(C[C@@H](CSc1ccccc1)C(=O)O)c1ccc(-c2ccc(Cl)cc2)cc1
Interstitial collagenase [1]
  Ki: > 5000 nM
[2]
  Ki: 11 nM
[3]
  Ki: 301 nM
Collagenase 3 [4]
  Ki: 147000 nM

## NC(=O)[C@H](CCC(=O)O)NC(=O)[C@@H](CCC(=O)O)NC(=O)CCc1ccc(-c2ccccc2)cc1
Interstitial collagenase [5]
  Ki: > 100000 nM
[6]
  Ki: 445 nM
Stromelysin-1 [7]
  Ki: 6700 nM
Matrilysin [8]
  Ki: 24700 nM
Neutrophil collagenase [9]
  Ki: 226 nM
[10]
  Ki: 1090 nM
Stromelysin-2 [11]
  Ki: 1110 nM
Collagenase 3 [12]
  Ki: 689 nM
[13]
  Ki: 5900 nM

## O=C(NO)C1(S(=O)(=O)c2ccc(-n3cc(-c4ccc(-c5ccccc5)cc4)nn3)cc2)CCOCC1
Interstitial collagenase [1]
  IC50: > 1000 nM
Stromelysin-1 [14]
  IC50: 17.2 nM
Matrilysin [15]
  IC50: > 100 nM
Neutrophil collagenase [16]
  IC50: > 100 nM
[17]
  IC50: 3.2 nM
Collagenase 3 [4]
  IC50: 0.9 nM
[18]
  IC50: 65 nM
[19]
  IC50: 1.4 nM
[20]
  IC50: 98 nM
Stromelysin-2 [21]
  IC50: 51 nM

## O=C(NO)C1(S(=O)(=O)c2ccc(Oc3ccc(Cl)cc3)cc2)CCOCC1
[2]
  Ki: 0.22 nM
Stromelysin-1 [14]
  Ki: 9.3 nM
Matrilysin [15]
  Ki: 1200 nM

## O=C(CS(=O)(=O)c1ccc(-c2ccccc2)cc1)NO
Interstitial collagenase [1]
  IC50: 1800 nM
[2]
  IC50: 6 nM
Stromelysin-1 [14]
  IC50: 200 nM
Matrilysin [15]
  IC50: 24 nM
[3]
  IC50: 140 nM
Collagenase 3 [4]
  IC50: 9.8 nM
[18]
  IC50: 376 nM

## CNC(=O)[C@@H](NC(=O)[C@H](CC(C)C)[C@H](O)C(=O)NO)C(C)(C)C
[18]
  IC50: 1.8 nM

## CCNC(=O)CCC(NS(=O)(=O)c1ccc(-c2ccccc2)cc1)C(=O)O (stereo not given)
[3]
  IC50: 1.19 nM

## NCCCCC(NS(=O)(=O)c1ccc(-c2ccccc2)cc1)C(=O)O (stereo not given)
[22]
  IC50: 900 nM
[23]
  IC50: 40000 nM

## O=C(NCCCCC(NS(=O)(=O)c1ccc(-c2ccccc2)cc1)C(=O)O)OCc1ccccc1 (stereo not given)
[22]
  IC50: 50 nM
[23]
  IC50: 1800 nM

## COc1ccc(S(=O)(=O)N(Cc2ccccc2)[C@@H](C(=O)NO)C(C)C)cc1
Stromelysin-1 [14]
  IC50: 13 nM
[17]
  IC50: 7.7 nM

## CO[C@H](C(=O)NO)[C@@H](CC(C)C)C(=O)N[C@H](C(=O)Nc1ccccn1)C(C)(C)C [SOLIMASTAT]
[2]
  IC50: 80 nM
Matrilysin [15]
  IC50: 5 nM
[3]
  IC50: 70 nM

## NC(=O)CCC(NS(=O)(=O)c1ccc(-c2ccccc2)cc1)C(=O)O (stereo not given)
[3]
  IC50: 3.57 nM

## O=C(NC1CCC1)P(=O)(O)O [(CYCLOBUTYLAMINO)CARBONYLPHOSPHONIC ACID]
Neutrophil collagenase [24]
  IC50: 4 nM

## CNC(=O)[C@@H](NC(=O)[C@H](CC(C)C)NC(=O)[C@H](S)CCN1C(=O)N(C)C(C)(C)C1=O)C(C)(C)C
Interstitial collagenase [1]
  IC50: 25 nM
[2]
  IC50: 41 nM
Stromelysin-1 [14]
  IC50: 157 nM
[3]
  IC50: 25 nM
Collagenase 3 [4]
  IC50: 4 nM

## NC(=O)[C@H](CCC(=O)O)NC(=O)[C@@H](CCC(=O)O)NC(=O)CCc1cc(-c2ccc(-c3cccc(Cl)c3)cc2)no1
Interstitial collagenase [5]
  Ki: 17900 nM
[6]
  Ki: 76 nM
Stromelysin-1 [7]
  Ki: 62 nM
Matrilysin [8]
  Ki: 1200 nM
Neutrophil collagenase [9]
  Ki: 181 nM
[10]
  Ki: 565 nM
Stromelysin-2 [11]
  Ki: 48 nM
Collagenase 3 [12]
  Ki: 40 nM
[13]
  Ki: 2060 nM

— ChEMBL document CHEMBL5113513, “Selective Inhibitors of Medium-Size S1' Pocket Matrix Metalloproteinases: A Stepping Stone of Future Drug Discovery” (J Med Chem, 2022)
